compound: Nc1ncnc2c1ncn2[C@@H]1O[C@H](COP(=O)(O)OP(=O)(O)OP(=O)(O)O)[C@@H](O)[C@H]1O [adenosine triphosphate]; assay: pEC50 of ATP-induced change in protein thermal stability (2D-TPP)
How it was run: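 In three independent experiments, Jurkat crude lysate received five concentrations including vehicle for 10 min at room temperature before a 3 min heating step at 12 temperatures (42–63.9 °C). NP40 and benzonase were then added for 60 min at 4 °C, and soluble protein after ultracentrifugation was read out by TMT LC-MS/MS as median-normalised fold changes against vehicle at each temperature. Dose-response fits per replicate over adjacent temperature pairs yielded pEC50, with hits called by permutation-based false discovery rate control.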
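Also: lysate dosed with Na-ATP at 0 0.005 0.05 0.5 and 2 mM.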

Chain of UniProt P08238 (P08238 whole entry): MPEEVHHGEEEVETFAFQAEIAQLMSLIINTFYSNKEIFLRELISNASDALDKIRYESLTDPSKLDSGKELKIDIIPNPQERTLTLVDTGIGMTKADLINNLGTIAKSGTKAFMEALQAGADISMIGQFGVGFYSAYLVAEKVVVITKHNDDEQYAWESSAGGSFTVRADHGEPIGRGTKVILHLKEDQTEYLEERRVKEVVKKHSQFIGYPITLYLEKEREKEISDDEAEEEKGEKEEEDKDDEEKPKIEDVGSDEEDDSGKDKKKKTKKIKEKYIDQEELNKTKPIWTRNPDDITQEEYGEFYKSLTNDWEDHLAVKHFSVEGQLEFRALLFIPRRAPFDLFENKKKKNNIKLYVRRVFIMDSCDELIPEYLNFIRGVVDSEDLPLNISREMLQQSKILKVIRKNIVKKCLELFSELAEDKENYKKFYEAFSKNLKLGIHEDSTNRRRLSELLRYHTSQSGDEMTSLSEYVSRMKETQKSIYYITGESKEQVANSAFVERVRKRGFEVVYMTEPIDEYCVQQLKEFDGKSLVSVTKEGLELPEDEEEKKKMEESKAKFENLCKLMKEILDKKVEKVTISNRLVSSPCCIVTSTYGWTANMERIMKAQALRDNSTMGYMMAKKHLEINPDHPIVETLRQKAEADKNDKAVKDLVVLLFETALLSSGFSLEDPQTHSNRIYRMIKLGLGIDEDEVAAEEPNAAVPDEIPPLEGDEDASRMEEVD
Chain of UniProt P23443 (P23443 whole entry, looked up): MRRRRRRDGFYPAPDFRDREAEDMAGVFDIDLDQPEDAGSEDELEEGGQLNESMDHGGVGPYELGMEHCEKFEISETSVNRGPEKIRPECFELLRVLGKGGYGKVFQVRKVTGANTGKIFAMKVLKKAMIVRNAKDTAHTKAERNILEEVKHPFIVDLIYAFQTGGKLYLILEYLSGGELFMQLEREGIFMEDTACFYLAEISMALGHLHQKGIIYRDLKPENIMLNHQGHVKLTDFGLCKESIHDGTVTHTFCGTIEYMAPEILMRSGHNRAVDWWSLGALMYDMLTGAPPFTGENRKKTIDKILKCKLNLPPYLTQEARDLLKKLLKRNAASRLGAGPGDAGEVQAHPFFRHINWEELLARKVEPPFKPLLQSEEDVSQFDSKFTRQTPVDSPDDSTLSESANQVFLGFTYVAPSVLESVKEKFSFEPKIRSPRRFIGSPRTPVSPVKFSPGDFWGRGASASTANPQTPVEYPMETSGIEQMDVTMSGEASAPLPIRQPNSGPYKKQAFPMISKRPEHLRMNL
Chain of UniProt P35580 (P35580 whole entry): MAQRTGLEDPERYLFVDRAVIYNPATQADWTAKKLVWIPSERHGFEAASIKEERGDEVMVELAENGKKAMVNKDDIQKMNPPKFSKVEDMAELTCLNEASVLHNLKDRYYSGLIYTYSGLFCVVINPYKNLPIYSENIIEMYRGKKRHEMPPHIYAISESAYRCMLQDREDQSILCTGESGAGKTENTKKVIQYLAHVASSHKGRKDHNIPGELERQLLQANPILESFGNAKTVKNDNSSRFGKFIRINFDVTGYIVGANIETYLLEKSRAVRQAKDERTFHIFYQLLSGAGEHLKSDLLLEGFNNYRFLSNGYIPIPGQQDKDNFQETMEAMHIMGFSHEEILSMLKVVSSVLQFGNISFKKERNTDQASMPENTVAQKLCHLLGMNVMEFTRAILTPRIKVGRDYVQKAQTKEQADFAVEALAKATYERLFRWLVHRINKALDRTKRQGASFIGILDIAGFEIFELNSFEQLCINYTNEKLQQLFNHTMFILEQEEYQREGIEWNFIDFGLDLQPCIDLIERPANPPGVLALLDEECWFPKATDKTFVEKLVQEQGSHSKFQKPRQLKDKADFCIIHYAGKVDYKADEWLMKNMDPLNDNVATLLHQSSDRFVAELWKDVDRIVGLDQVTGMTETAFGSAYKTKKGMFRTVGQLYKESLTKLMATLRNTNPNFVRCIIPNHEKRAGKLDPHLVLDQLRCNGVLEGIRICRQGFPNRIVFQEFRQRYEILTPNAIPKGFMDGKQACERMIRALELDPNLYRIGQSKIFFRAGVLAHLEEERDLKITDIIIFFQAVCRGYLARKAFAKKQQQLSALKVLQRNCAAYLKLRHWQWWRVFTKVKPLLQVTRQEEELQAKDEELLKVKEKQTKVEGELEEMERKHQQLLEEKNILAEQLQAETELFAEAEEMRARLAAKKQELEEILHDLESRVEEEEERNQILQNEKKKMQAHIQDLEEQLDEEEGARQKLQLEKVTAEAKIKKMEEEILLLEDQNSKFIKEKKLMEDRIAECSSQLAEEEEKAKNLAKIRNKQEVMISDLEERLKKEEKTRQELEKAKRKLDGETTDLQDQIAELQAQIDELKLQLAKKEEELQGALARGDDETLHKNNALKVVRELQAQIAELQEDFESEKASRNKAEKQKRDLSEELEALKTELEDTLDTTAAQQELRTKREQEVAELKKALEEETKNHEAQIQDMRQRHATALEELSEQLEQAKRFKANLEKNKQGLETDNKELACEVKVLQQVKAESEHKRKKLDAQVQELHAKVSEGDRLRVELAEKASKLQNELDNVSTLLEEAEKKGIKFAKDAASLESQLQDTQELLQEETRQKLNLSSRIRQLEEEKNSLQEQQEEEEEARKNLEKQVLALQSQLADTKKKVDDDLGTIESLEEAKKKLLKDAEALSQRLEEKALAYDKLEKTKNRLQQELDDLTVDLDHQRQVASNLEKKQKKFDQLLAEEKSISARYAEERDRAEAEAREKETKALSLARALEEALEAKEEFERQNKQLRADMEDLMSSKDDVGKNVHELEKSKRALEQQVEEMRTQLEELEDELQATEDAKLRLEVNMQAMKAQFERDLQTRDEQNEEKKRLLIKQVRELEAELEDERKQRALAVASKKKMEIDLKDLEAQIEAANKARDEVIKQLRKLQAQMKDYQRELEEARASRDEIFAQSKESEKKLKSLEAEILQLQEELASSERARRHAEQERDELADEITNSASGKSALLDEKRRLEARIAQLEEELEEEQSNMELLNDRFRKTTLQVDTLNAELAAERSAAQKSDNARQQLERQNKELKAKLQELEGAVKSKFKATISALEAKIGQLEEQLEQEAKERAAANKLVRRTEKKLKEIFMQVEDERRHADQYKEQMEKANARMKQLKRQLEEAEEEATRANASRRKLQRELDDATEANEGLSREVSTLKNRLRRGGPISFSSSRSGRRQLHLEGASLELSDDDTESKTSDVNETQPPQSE
Chain of UniProt O14730 (O14730 whole entry): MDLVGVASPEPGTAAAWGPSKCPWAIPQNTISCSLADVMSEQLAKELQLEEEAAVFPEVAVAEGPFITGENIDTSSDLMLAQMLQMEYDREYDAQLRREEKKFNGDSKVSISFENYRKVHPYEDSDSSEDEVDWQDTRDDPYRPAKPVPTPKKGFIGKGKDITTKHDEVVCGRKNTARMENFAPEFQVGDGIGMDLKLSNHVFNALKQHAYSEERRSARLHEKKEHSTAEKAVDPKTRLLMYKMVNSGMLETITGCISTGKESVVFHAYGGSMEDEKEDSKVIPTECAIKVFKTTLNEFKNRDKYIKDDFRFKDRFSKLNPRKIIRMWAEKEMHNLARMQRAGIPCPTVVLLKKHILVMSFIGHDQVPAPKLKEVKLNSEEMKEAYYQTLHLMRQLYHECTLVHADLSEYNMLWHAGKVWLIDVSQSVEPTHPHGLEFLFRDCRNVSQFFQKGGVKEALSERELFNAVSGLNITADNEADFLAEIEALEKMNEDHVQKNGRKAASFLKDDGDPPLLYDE
Chain of UniProt Q9H223 (Q9H223 whole entry): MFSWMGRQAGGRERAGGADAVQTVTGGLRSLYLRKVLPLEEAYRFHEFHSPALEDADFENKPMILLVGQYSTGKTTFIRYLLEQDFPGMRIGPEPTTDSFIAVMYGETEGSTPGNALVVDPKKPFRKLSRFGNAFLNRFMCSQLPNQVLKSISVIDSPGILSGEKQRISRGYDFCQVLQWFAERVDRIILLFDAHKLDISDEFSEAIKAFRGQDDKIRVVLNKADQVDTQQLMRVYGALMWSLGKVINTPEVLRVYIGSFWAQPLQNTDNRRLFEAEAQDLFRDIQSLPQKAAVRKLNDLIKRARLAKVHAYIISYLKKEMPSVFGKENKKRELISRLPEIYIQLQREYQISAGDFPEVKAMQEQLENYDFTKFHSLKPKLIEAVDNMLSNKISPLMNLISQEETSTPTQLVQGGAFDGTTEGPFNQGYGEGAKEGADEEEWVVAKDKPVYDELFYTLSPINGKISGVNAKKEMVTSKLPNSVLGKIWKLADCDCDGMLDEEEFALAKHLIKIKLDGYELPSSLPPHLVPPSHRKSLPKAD
Chain of UniProt Q9BQ61 (Q9BQ61 whole entry): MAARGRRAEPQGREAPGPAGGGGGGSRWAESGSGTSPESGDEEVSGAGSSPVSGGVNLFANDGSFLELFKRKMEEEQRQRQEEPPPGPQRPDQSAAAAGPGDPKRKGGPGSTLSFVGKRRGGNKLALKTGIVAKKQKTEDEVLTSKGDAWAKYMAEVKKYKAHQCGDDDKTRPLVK

Going from “JMJD6 (effect direction: stabilized) (UniProt Q6NYC1)” to “UniProt P23443 (effect direction: stabilized)”, the pEC50 rises from 3.21 to 3.7.

First: HTATSF1 (effect direction: stabilized) (UniProt O43719)
Second: KIF21B (effect direction: stabilized) (UniProt O75037)
The pEC50 of the first is lower: under 2.7 for the first, 3.38 for the second.

“ZCCHC9 (effect direction: destabilized) (UniProt Q8N567)” and “HSP90AB1 (effect direction: stabilized) (UniProt P08238)” cannot be ordered by pEC50: under 2.7 for the first, under 2.7 for the second.

First: UniProt Q9Y6E0 (effect direction: stabilized)
Second: ATXN10 (effect direction: stabilized) (UniProt Q9UBB4)
Chain of UniProt Q9UBB4 (Q9UBB4 whole entry): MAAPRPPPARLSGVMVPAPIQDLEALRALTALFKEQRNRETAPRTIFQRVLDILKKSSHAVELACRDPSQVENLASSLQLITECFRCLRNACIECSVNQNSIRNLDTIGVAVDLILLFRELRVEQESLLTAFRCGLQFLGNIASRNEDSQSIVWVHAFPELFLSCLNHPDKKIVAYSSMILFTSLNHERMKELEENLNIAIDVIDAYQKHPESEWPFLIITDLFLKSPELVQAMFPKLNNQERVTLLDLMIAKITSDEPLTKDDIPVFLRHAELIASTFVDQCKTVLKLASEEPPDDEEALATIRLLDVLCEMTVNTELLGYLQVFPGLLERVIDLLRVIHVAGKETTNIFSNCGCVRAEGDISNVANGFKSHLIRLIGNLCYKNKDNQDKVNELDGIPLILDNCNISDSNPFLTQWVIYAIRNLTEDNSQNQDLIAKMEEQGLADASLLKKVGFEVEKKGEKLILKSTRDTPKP
The pEC50 of the first is higher: 3.56 for the first, under 2.7 for the second.

Going from “AHCY (effect direction: stabilized) (UniProt P23526)” to “KPNB1 (effect direction: stabilized) (UniProt Q14974)”, the pEC50 falls from 4.33 to 2.96.

Compared with “SMC3 (effect direction: stabilized) (UniProt Q9UQE7)”, “PSMD7 (effect direction: stabilized) (UniProt P51665)” is higher in pEC50: 3.41 for the first, 4.16 for the second.

First: AARS2 (effect direction: stabilized) (UniProt Q5JTZ9)
Second: EIF4G1 (effect direction: stabilized) (UniProt Q04637)
The pEC50 of the first is higher: 3.29 for the first, 2.71 for the second.

First: NUP210 (effect direction: stabilized) (UniProt Q8TEM1)
Second: KLC1 (effect direction: stabilized) (UniProt Q07866)
The pEC50 of the first is lower: under 2.7 for the first, 3.95 for the second.

Compared with “DHX16 (effect direction: stabilized) (UniProt O60231)”, “IMPDH1 (effect direction: stabilized) (UniProt P20839)” is lower in pEC50: 4.14 for the first, 3.32 for the second.

“NSDHL (effect direction: stabilized) (UniProt Q15738)” and “DCTN1 (effect direction: stabilized) (UniProt Q14203)” cannot be ordered by pEC50: under 2.7 for the first, under 2.7 for the second.

Compared with “MDH1 (effect direction: stabilized) (UniProt P40925)”, “GLO1 (effect direction: destabilized) (UniProt Q04760)” is lower in pEC50: 5 for the first, under 2.7 for the second.

Compared with “MYH10 (effect direction: stabilized) (UniProt P35580)”, “UniProt P61163 (effect direction: stabilized)” is lower in pEC50: 4.1 for the first, 3.1 for the second.

First: ZCCHC8 (effect direction: stabilized) (UniProt Q6NZY4)
Second: GSN (effect direction: stabilized) (UniProt P06396)
The pEC50 of the first is lower: under 2.7 for the first, 2.94 for the second.

“UniProt Q9BQ61 (effect direction: destabilized)” and “RIOK3 (effect direction: stabilized) (UniProt O14730)” are within 0.2 log units of each other in pEC50: 3.66 for the first, 3.7 for the second.

Compared with “EHD4 (effect direction: stabilized) (UniProt Q9H223)”, “DHX57 (effect direction: stabilized) (UniProt Q6P158)” is higher in pEC50: 3.86 for the first, 4.17 for the second.

Compared with “CAB39 (effect direction: stabilized) (UniProt Q9Y376)”, “XPO1 (effect direction: stabilized) (UniProt O14980)” is lower in pEC50: 3.15 for the first, under 2.7 for the second.

Compared with “ITPK1 (effect direction: stabilized) (UniProt Q13572)”, “OPA1 (effect direction: destabilized) (UniProt O60313)” is lower in pEC50: 3.89 for the first, 3.09 for the second.

Going from “HSD17B7 (effect direction: stabilized) (UniProt P56937)” to “NFKB1 (effect direction: stabilized) (UniProt P19838)”, the pEC50 rises from 3.22 to 3.66.

Compared with “PPM1G (effect direction: stabilized) (UniProt O15355)”, “GTPBP1 (effect direction: stabilized) (UniProt O00178)” is higher in pEC50: under 2.7 for the first, 3.28 for the second.

Work on “HSPA14 (effect direction: stabilized) (UniProt Q0VDF9)” yielded a pEC50 of 2.8.
